Experimental data as given in patent publication US20150366890A1, “COMPOSITIONS AND METHODS FOR TREATING FUNGAL INFECTIONS” (TRUSTEES OF BOSTON UNIVERSITY, priority 2013, published 2015).
Like-named read-outs stand apart in the source and are kept apart here.

What was measured:
Type in all cases: cell-based
[1] = system: S. cerevisiae single-deletion yeast strains; experiment: High-throughput 96-well screen of AF sensitivity of single-gene knockouts (CFU at start and after 8 hours)
Procedure: To identify genes critical to AF action, the AF sensitivity of single-gene knockouts identified through the common transcriptional analysis were identified. In the first pass-through, 56 testable genes were identified. This set was later expanded to include targets identified through phenotypic analysis and metabolomic profiling, for a total of 84 target genes (Table 2). The initial 56 targets were tested using a rapid high-throughput 96-well assay with AMB and MCZ to identify single-gene knockouts with elevated resistance to AFs (Table 2). Knockouts that were more resistant to at least one of the AFs were tested individually using the 24-well colony forming (CF) assay. Target genes selected after the initial 56 strains were assayed individually using the 24-well CF assay.
The first 56 S. cerevisiae strains were acquired from the deletion library and stored in 96-well plates in replicates of three. To start the assay, the plates were defrosted and 10 μl of stored cells were inoculated into 100 μl of fresh synthetic dextrose complete (SDC) media for 16 hours. These overnight cultures were diluted into a fresh 96-well plate with 100 μl of SDC to achieve an OD600 of approximately 0.2. Colony forming units (CFU) in each well were measured at the start of the assay and after 8 hours of incubation. The AF susceptibility of each strain was compared to that of wildtype. Strains with significant susceptibility differences from wildtype were assayed in 0.5 ml of SDC media using the 24-well plate CF assay described above.

[2] = system: C. albicans wildtype and DNA repair mutants; experiment: Fungicidal killing, CFU assay; details: C. albicans rad50/rad50 and rad52/rad52, 3 hours of drug exposure
Procedure: Overnight yeast cultures were diluted into the indicated media and grown to an OD600 of 0.2, at which point the AFs were added. Colony forming units (CFU) were measured by plating six serial dilutions onto YPD agar plates.
(§1) Overnight yeast cultures were diluted into the indicated media and grown to an OD600 of 0.2, at which point the AFs were added. Colony forming units (CFU) were measured by plating six serial dilutions onto YPD agar plates. Cells treated with MCZ were washed before serial dilution to stop growth inhibition associated with high concentrations of MCZ. CFU were counted after three days of incubation on agar plates. When indicated, thiourea (Fluka) was added 30 min prior to the addition of AFs. HPF (10 μM) (Invitrogen) and Mito Tracker (1 μM) (Invitrogen) dyes were added to PBS-washed cells at the indicated time points and incubated for 30 min prior to flow cytometry measurements, which were taken on the FACSCalibur (Becton-Dickinson). All experiments described in this section were conducted in 0.5 ml of SDC in 24-well plates incubated at 900 rpm and 37° C. for C. albicans and 30° C. and 300 rpm for S. cerevisiae. TUNEL assays were conducted as previously described (Ribeiro et al., 2006) and are described in detail in the TUNEL section of the Experimental Procedures.

[3] = system: S. cerevisiae wildtype and deletion strains
S. cerevisiae = experiment: Mitochondrial activity by MitoTracker Red fluorescence; details: drug added to glucose-incubated (SC, 2% glucose) S. cerevisiae
Procedure: It was next sought to assess the mitochondrial activity of AF-treated fungal cells. Yhe MitoTracker Red dye, which enters the mitochondrial matrix by utilizing the proton motive force and thus labels metabolically active mitochondria in viable cells was used (Arita et al., 2006; Tomas et al., 2011). Exponential phase S. cerevisiae were incubated in glucose-free synthetic complete (SC) media for 30 min and then switched to SC containing 2% glucose or non-fermentable acetate for 1.5 hours.
as §1

[4] = S. cerevisiae PAB103, SDH2 deletion
[5] = S. cerevisiae PAB107, NDE1 deletion
[6] = S. cerevisiae PAB112, MNE1 deletion
[7] = S. cerevisiae PAB113, FUM1 deletion
[8] = S. cerevisiae PAB114, TPK2 deletion
[9] = S. cerevisiae PAB119, CIT2 deletion
[10] = S. cerevisiae PAB121, SDH1 deletion
[11] = S. cerevisiae PAB122, TPK3 deletion
[12] = S. cerevisiae PAB124, TPK1 deletion
[13] = S. cerevisiae PAB132, CIT3 deletion
[14] = S. cerevisiae PAB135, NDI1 deletion
[15] = S. cerevisiae PAB145, CIT1 deletion

Clc1ccc(COC(Cn2ccnc2)c2ccc(Cl)cc2Cl)c(Cl)c1 (stereo not drawn) [MCZ, miconazole]
96 Well Screen, AF susceptibility vs wildtype ([1]; S. cerevisiae PAB101, WT): Normal
96 Well Screen, AF susceptibility vs wildtype ([1]; S. cerevisiae PAB102, HSP104 deletion): Normal
96 Well Screen, AF susceptibility vs wildtype [1, 4]: Resistant (″Resistant″ or ″Sensitive″ indicate at least a 5-fold CFU difference from wildtype at the final time point)
96 Well Screen, AF susceptibility vs wildtype ([1]; S. cerevisiae PAB104, FRE8 deletion): Normal
96 Well Screen, AF susceptibility vs wildtype ([1]; S. cerevisiae PAB105, CHA4 deletion): Normal
96 Well Screen, AF susceptibility vs wildtype ([1]; S. cerevisiae PAB106, FMS1 deletion): Normal
96 Well Screen, AF susceptibility vs wildtype [1, 5]: Resistant (″Resistant″ or ″Sensitive″ indicate at least a 5-fold CFU difference from wildtype at the final time point)
96 Well Screen, AF susceptibility vs wildtype ([1]; S. cerevisiae PAB108, ALD3 deletion): Normal
96 Well Screen, AF susceptibility vs wildtype ([1]; S. cerevisiae PAB109, GAD1 deletion): Normal
96 Well Screen, AF susceptibility vs wildtype ([1]; S. cerevisiae PAB110, PGM3 deletion): Normal
96 Well Screen, AF susceptibility vs wildtype ([1]; S. cerevisiae PAB111, PYK2 deletion): Resistant (″Resistant″ or ″Sensitive″ indicate at least a 5-fold CFU difference from wildtype at the final time point)
96 Well Screen, AF susceptibility vs wildtype [1, 6]: Normal
96 Well Screen, AF susceptibility vs wildtype [1, 7]: Resistant (″Resistant″ or ″Sensitive″ indicate at least a 5-fold CFU difference from wildtype at the final time point)
96 Well Screen, AF susceptibility vs wildtype [1, 8]: Normal
96 Well Screen, AF susceptibility vs wildtype ([1]; S. cerevisiae PAB115, ATG29 deletion): Normal
96 Well Screen, AF susceptibility vs wildtype ([1]; S. cerevisiae PAB116, ISU1 deletion): Normal
96 Well Screen, AF susceptibility vs wildtype ([1]; S. cerevisiae PAB117, CYC7 deletion): Normal
96 Well Screen, AF susceptibility vs wildtype ([1]; S. cerevisiae PAB118, ARN1 deletion): Normal
96 Well Screen, AF susceptibility vs wildtype [1, 9]: Resistant (″Resistant″ or ″Sensitive″ indicate at least a 5-fold CFU difference from wildtype at the final time point)
96 Well Screen, AF susceptibility vs wildtype ([1]; S. cerevisiae PAB120, HSP30 deletion): Resistant (″Resistant″ or ″Sensitive″ indicate at least a 5-fold CFU difference from wildtype at the final time point)
96 Well Screen, AF susceptibility vs wildtype [1, 10]: Resistant (″Resistant″ or ″Sensitive″ indicate at least a 5-fold CFU difference from wildtype at the final time point)
96 Well Screen, AF susceptibility vs wildtype [1, 11]: Resistant (″Resistant″ or ″Sensitive″ indicate at least a 5-fold CFU difference from wildtype at the final time point)
96 Well Screen, AF susceptibility vs wildtype ([1]; S. cerevisiae PAB123, ISU2 deletion): Normal
96 Well Screen, AF susceptibility vs wildtype [1, 12]: Normal
96 Well Screen, AF susceptibility vs wildtype ([1]; S. cerevisiae PAB125, MID2 deletion): Normal
96 Well Screen, AF susceptibility vs wildtype ([1]; S. cerevisiae PAB126, SSK1 deletion): Normal
96 Well Screen, AF susceptibility vs wildtype ([1]; S. cerevisiae PAB127, HSP42 deletion): Normal
96 Well Screen, AF susceptibility vs wildtype ([1]; S. cerevisiae PAB128, PIG1 deletion): Normal
96 Well Screen, AF susceptibility vs wildtype ([1]; S. cerevisiae PAB130, UGA1 deletion): Normal
96 Well Screen, AF susceptibility vs wildtype ([1]; S. cerevisiae PAB131, MTL1 deletion): Normal
96 Well Screen, AF susceptibility vs wildtype [1, 13]: Resistant (″Resistant″ or ″Sensitive″ indicate at least a 5-fold CFU difference from wildtype at the final time point)
96 Well Screen, AF susceptibility vs wildtype ([1]; S. cerevisiae PAB133, ZWF1 deletion): Normal
96 Well Screen, AF susceptibility vs wildtype ([1]; S. cerevisiae PAB134, SUM1 deletion): Normal
96 Well Screen, AF susceptibility vs wildtype [1, 14]: Normal
96 Well Screen, AF susceptibility vs wildtype ([1]; S. cerevisiae PAB136, PGM2 deletion): Resistant (″Resistant″ or ″Sensitive″ indicate at least a 5-fold CFU difference from wildtype at the final time point)
96 Well Screen, AF susceptibility vs wildtype ([1]; S. cerevisiae PAB137, HFD1 deletion): Normal
96 Well Screen, AF susceptibility vs wildtype ([1]; S. cerevisiae PAB138, PUF2 deletion): Normal
96 Well Screen, AF susceptibility vs wildtype ([1]; S. cerevisiae PAB139, TDH1 deletion): Normal
96 Well Screen, AF susceptibility vs wildtype ([1]; S. cerevisiae PAB140, GUD1 deletion): Sensitive (″Resistant″ or ″Sensitive″ indicate at least a 5-fold CFU difference from wildtype at the final time point)
96 Well Screen, AF susceptibility vs wildtype ([1]; S. cerevisiae PAB141, ATG15 deletion): Normal
96 Well Screen, AF susceptibility vs wildtype ([1]; S. cerevisiae PAB142, TDH2 deletion): Normal
96 Well Screen, AF susceptibility vs wildtype ([1]; S. cerevisiae PAB143, ATP1 deletion): Normal
96 Well Screen, AF susceptibility vs wildtype ([1]; S. cerevisiae PAB144, UGA2 deletion): Normal
96 Well Screen, AF susceptibility vs wildtype [1, 15]: Resistant (″Resistant″ or ″Sensitive″ indicate at least a 5-fold CFU difference from wildtype at the final time point)
96 Well Screen, AF susceptibility vs wildtype ([1]; S. cerevisiae PAB146, SOLI deletion): Normal
96 Well Screen, AF susceptibility vs wildtype ([1]; S. cerevisiae PAB147, PAN6 deletion): Normal
96 Well Screen, AF susceptibility vs wildtype ([1]; S. cerevisiae PAB148, SOL4 deletion): Normal
96 Well Screen, AF susceptibility vs wildtype ([1]; S. cerevisiae PAB149, YAK1 deletion): Sensitive (″Resistant″ or ″Sensitive″ indicate at least a 5-fold CFU difference from wildtype at the final time point)
96 Well Screen, AF susceptibility vs wildtype ([1]; S. cerevisiae PAB150, PBS2 deletion): Sensitive (″Resistant″ or ″Sensitive″ indicate at least a 5-fold CFU difference from wildtype at the final time point)
96 Well Screen, AF susceptibility vs wildtype ([1]; S. cerevisiae PAB152, GPD1 deletion): Sensitive (″Resistant″ or ″Sensitive″ indicate at least a 5-fold CFU difference from wildtype at the final time point)
96 Well Screen, AF susceptibility vs wildtype ([1]; S. cerevisiae PAB153, SHO1 deletion): Sensitive (″Resistant″ or ″Sensitive″ indicate at least a 5-fold CFU difference from wildtype at the final time point)
96 Well Screen, AF susceptibility vs wildtype ([1]; S. cerevisiae PAB154, FET3 deletion): Sensitive (″Resistant″ or ″Sensitive″ indicate at least a 5-fold CFU difference from wildtype at the final time point)
96 Well Screen, AF susceptibility vs wildtype ([1]; S. cerevisiae PAB155, FBP1 deletion): Sensitive (″Resistant″ or ″Sensitive″ indicate at least a 5-fold CFU difference from wildtype at the final time point)
96 Well Screen, AF susceptibility vs wildtype ([1]; S. cerevisiae PAB156, COX6 deletion): Sensitive (″Resistant″ or ″Sensitive″ indicate at least a 5-fold CFU difference from wildtype at the final time point)
susceptibility of DSBR mutants compared to wildtype [2]: particularly susceptible
additive resistance on deleting the remaining citrate synthases in the cit3 background ([3]; S. cerevisiae CIT1/CIT2 deletions in cit3 background): not observed
CFU (24-well colony forming assay), AF susceptibility vs wildtype [3, 4]: Resistant (″Resistant″ or ″Sensitive″ indicate at least a 5-fold CFU difference from wildtype at the final time point)
CFU (24-well colony forming assay), AF susceptibility vs wildtype [3, 5]: Resistant (″Resistant″ or ″Sensitive″ indicate at least a 5-fold CFU difference from wildtype at the final time point)
CFU (24-well colony forming assay), AF susceptibility vs wildtype [3, 6]: Resistant (″Resistant″ or ″Sensitive″ indicate at least a 5-fold CFU difference from wildtype at the final time point)
CFU (24-well colony forming assay), AF susceptibility vs wildtype [3, 7]: Resistant (″Resistant″ or ″Sensitive″ indicate at least a 5-fold CFU difference from wildtype at the final time point)
CFU (24-well colony forming assay), AF susceptibility vs wildtype [3, 8]: Resistant (″Resistant″ or ″Sensitive″ indicate at least a 5-fold CFU difference from wildtype at the final time point)
CFU (24-well colony forming assay), AF susceptibility vs wildtype [3, 9]: Resistant (″Resistant″ or ″Sensitive″ indicate at least a 5-fold CFU difference from wildtype at the final time point)
CFU (24-well colony forming assay), AF susceptibility vs wildtype [3, 10]: Resistant (″Resistant″ or ″Sensitive″ indicate at least a 5-fold CFU difference from wildtype at the final time point)
CFU (24-well colony forming assay), AF susceptibility vs wildtype [3, 11]: Resistant (″Resistant″ or ″Sensitive″ indicate at least a 5-fold CFU difference from wildtype at the final time point)
CFU (24-well colony forming assay), AF susceptibility vs wildtype [3, 12]: Resistant (″Resistant″ or ″Sensitive″ indicate at least a 5-fold CFU difference from wildtype at the final time point)
CFU (24-well colony forming assay), AF susceptibility vs wildtype [3, 13]: Resistant (″Resistant″ or ″Sensitive″ indicate at least a 5-fold CFU difference from wildtype at the final time point)
CFU (24-well colony forming assay), AF susceptibility vs wildtype [3, 14]: Resistant (″Resistant″ or ″Sensitive″ indicate at least a 5-fold CFU difference from wildtype at the final time point)
CFU (24-well colony forming assay), AF susceptibility vs wildtype [3, 15]: Resistant (″Resistant″ or ″Sensitive″ indicate at least a 5-fold CFU difference from wildtype at the final time point)
CFU (24-well colony forming assay), AF susceptibility vs wildtype ([3]; S. cerevisiae PAB168, RAS1 deletion): Resistant (″Resistant″ or ″Sensitive″ indicate at least a 5-fold CFU difference from wildtype at the final time point)
CFU (24-well colony forming assay), AF susceptibility vs wildtype ([3]; S. cerevisiae PAB171, RAS2 deletion): Resistant (″Resistant″ or ″Sensitive″ indicate at least a 5-fold CFU difference from wildtype at the final time point)
reduction of killing at 3 hours by thiourea ([3]; S. cerevisiae, 50 mM thiourea for 30 minutes prior to the addition of AF drugs): ~10 fold
increase of MitoTracker fluorescence (S. cerevisiae): 70 fold
